From PubChem BioAssay AID1259407 (Chemical Carcinogenesis Research Information System (CCRIS), 2018) come the findings set out here.

This data set deals with CCRIS mutagenicity, Ames/micronucleus/aberration tests. Briefly: CCRIS mutagenicity studies.
[1] abbreviates: Test System: AMES SALMONELLA TYPHIMURIUM, Strain/Indicator: TA97, Metabolic Activation: NONE, Method: STANDARD PLATE.
Where [2] appears, read: Test System: AMES SALMONELLA TYPHIMURIUM, Strain/Indicator: TA98, Metabolic Activation: NONE, Method: STANDARD PLATE.
Where [3] appears, read: Test System: AMES SALMONELLA TYPHIMURIUM, Strain/Indicator: TA100, Metabolic Activation: NONE, Method: STANDARD PLATE.

SMILES strings stand for the structures. The source made the active and inactive calls. How the calls were made is not given here.

For `Oc1c(Cl)ccc(Cl)c1Cl`, the mutagenic call is, setting by setting: (End Point: IN VITRO CHROMOSOMAL ABERRATIONS, Test System: CHINESE HAMSTER LUNG CELLS (CHL), Metabolic Activation: RAT, LIVER, S-9, KC-400) “active; positive (structural changes)”; (End Point: IN VITRO CHROMOSOMAL ABERRATIONS, Test System: CHINESE HAMSTER OVARY CELLS (CHO), Metabolic Activation: NONE) “active; positive (structural changes)”; (End Point: IN VITRO CHROMOSOMAL ABERRATIONS, Test System: CHINESE HAMSTER OVARY CELLS (CHO), Metabolic Activation: RAT, LIVER, S-9, AROCLOR 1254) “active; positive (structural changes)”; (Test System: AMES SALMONELLA TYPHIMURIUM, Strain/Indicator: TA97, Metabolic Activation: HAMSTER, LIVER, S-9, AROCLOR 1254 (10%), Method: PREINCUBATION) “inactive; negative”; (Test System: AMES SALMONELLA TYPHIMURIUM, Strain/Indicator: TA97, Metabolic Activation: HAMSTER, LIVER, S-9, AROCLOR 1254 (30%), Method: PREINCUBATION) “inactive; negative”; (Test System: AMES SALMONELLA TYPHIMURIUM, Strain/Indicator: TA97, Metabolic Activation: NONE, Method: PREINCUBATION) “inactive; negative”. Further, the mutagenic call under setting [1] was “inactive; negative”; the mutagenic call (Test System: AMES SALMONELLA TYPHIMURIUM, Strain/Indicator: TA97, Metabolic Activation: RAT, LIVER, S-9, AROCLOR 1254 (10%), Method: PREINCUBATION) was “inactive; negative”; the mutagenic call (Test System: AMES SALMONELLA TYPHIMURIUM, Strain/Indicator: TA97, Metabolic Activation: RAT, LIVER, S-9, AROCLOR 1254 (30%), Method: PREINCUBATION) is “inactive; negative”; the mutagenic call (Test System: AMES SALMONELLA TYPHIMURIUM, Strain/Indicator: TA97, Metabolic Activation: RAT, LIVER, S-9, AROCLOR 1254, Method: STANDARD PLATE) is “inactive; negative”; the mutagenic call (Test System: AMES SALMONELLA TYPHIMURIUM, Strain/Indicator: TA98, Metabolic Activation: HAMSTER, LIVER, S-9, AROCLOR 1254 (10%), Method: PREINCUBATION) is “inactive; negative”; the mutagenic call (Test System: AMES SALMONELLA TYPHIMURIUM, Strain/Indicator: TA98, Metabolic Activation: HAMSTER, LIVER, S-9, AROCLOR 1254 (30%), Method: PREINCUBATION) is “inactive; negative”. In addition, the mutagenic call reads like this: (Test System: AMES SALMONELLA TYPHIMURIUM, Strain/Indicator: TA98, Metabolic Activation: NONE, Method: PREINCUBATION) “inactive; negative”; under setting [2], “inactive; negative”; (Test System: AMES SALMONELLA TYPHIMURIUM, Strain/Indicator: TA98, Metabolic Activation: RAT, LIVER, S-9, AROCLOR 1254 (10%), Method: PREINCUBATION) “inactive; negative”; (Test System: AMES SALMONELLA TYPHIMURIUM, Strain/Indicator: TA98, Metabolic Activation: RAT, LIVER, S-9, AROCLOR 1254 (30%), Method: PREINCUBATION) “inactive; negative”; (Test System: AMES SALMONELLA TYPHIMURIUM, Strain/Indicator: TA98, Metabolic Activation: RAT, LIVER, S-9, AROCLOR 1254, Method: STANDARD PLATE) “active; positive”; (Test System: AMES SALMONELLA TYPHIMURIUM, Strain/Indicator: TA100, Metabolic Activation: HAMSTER, LIVER, S-9, AROCLOR 1254 (10%), Method: PREINCUBATION) “inactive; negative”. The mutagenic call reads like this: (Test System: AMES SALMONELLA TYPHIMURIUM, Strain/Indicator: TA100, Metabolic Activation: HAMSTER, LIVER, S-9, AROCLOR 1254 (30%), Method: PREINCUBATION) “inactive; negative”; (Test System: AMES SALMONELLA TYPHIMURIUM, Strain/Indicator: TA100, Metabolic Activation: NONE, Method: PREINCUBATION) “inactive; negative”; under setting [3], “inactive; negative”; (Test System: AMES SALMONELLA TYPHIMURIUM, Strain/Indicator: TA100, Metabolic Activation: RAT, LIVER, S-9, AROCLOR 1254 (10%), Method: PREINCUBATION) “inactive; negative”; (Test System: AMES SALMONELLA TYPHIMURIUM, Strain/Indicator: TA100, Metabolic Activation: RAT, LIVER, S-9, AROCLOR 1254 (30%), Method: PREINCUBATION) “inactive; negative”; (Test System: AMES SALMONELLA TYPHIMURIUM, Strain/Indicator: TA100, Metabolic Activation: RAT, LIVER, S-9, AROCLOR 1254, Method: STANDARD PLATE) “inactive; negative”. The mutagenic call was “inactive; negative” (Test System: AMES SALMONELLA TYPHIMURIUM, Strain/Indicator: TA104, Metabolic Activation: NONE, Method: STANDARD PLATE); “inactive; negative” (Test System: AMES SALMONELLA TYPHIMURIUM, Strain/Indicator: TA104, Metabolic Activation: RAT, LIVER, S-9, AROCLOR 1254, Method: STANDARD PLATE); “inactive; negative” (Test System: AMES SALMONELLA TYPHIMURIUM, Strain/Indicator: TA1535, Metabolic Activation: HAMSTER, LIVER, S-9, AROCLOR 1254 (10%), Method: PREINCUBATION); “inactive; negative” (Test System: AMES SALMONELLA TYPHIMURIUM, Strain/Indicator: TA1535, Metabolic Activation: HAMSTER, LIVER, S-9, AROCLOR 1254 (30%), Method: PREINCUBATION); “inactive; negative” (Test System: AMES SALMONELLA TYPHIMURIUM, Strain/Indicator: TA1535, Metabolic Activation: NONE, Method: PREINCUBATION); “inactive; negative” (Test System: AMES SALMONELLA TYPHIMURIUM, Strain/Indicator: TA1535, Metabolic Activation: RAT, LIVER, S-9, AROCLOR 1254 (10%), Method: PREINCUBATION). Besides, the mutagenic call (Test System: AMES SALMONELLA TYPHIMURIUM, Strain/Indicator: TA1535, Metabolic Activation: RAT, LIVER, S-9, AROCLOR 1254 (30%), Method: PREINCUBATION) is “inactive; negative”; the mutagenic call (Test System: AMES SALMONELLA TYPHIMURIUM, Strain/Indicator: TA1537, Metabolic Activation: HAMSTER, LIVER, S-9, AROCLOR 1254 (30%), Method: PREINCUBATION) was “inactive; negative”; the mutagenic call (Test System: AMES SALMONELLA TYPHIMURIUM, Strain/Indicator: TA1537, Metabolic Activation: NONE, Method: PREINCUBATION) was “inactive; negative”; the mutagenic call (Test System: AMES SALMONELLA TYPHIMURIUM, Strain/Indicator: TA1537, Metabolic Activation: RAT, LIVER, S-9, AROCLOR 1254 (30%), Method: PREINCUBATION) was “inactive; negative”.
In the case of `CC[C@@H](CO)NCCN[C@@H](CC)CO`, the mutagenic call runs as follows: under setting [2], “inactive; negative”; (Test System: AMES SALMONELLA TYPHIMURIUM, Strain/Indicator: TA98, Metabolic Activation: S-9, Method: STANDARD PLATE) “inactive; negative”; under setting [3], “inactive; negative”; (Test System: AMES SALMONELLA TYPHIMURIUM, Strain/Indicator: TA100, Metabolic Activation: S-9, Method: STANDARD PLATE) “inactive; negative”.
`O=C(Cc1ccccc1)NC(Cc1ccc(Cl)cc1)C(=O)O` (configuration not stated): the mutagenic call runs as follows: (Test System: AMES SALMONELLA TYPHIMURIUM, Strain/Indicator: TA98, Metabolic Activation: NONE) “inactive; negative”; (Test System: AMES SALMONELLA TYPHIMURIUM, Strain/Indicator: TA100, Metabolic Activation: NONE) “active; positive”; (Test System: AMES SALMONELLA TYPHIMURIUM, Strain/Indicator: TA1535, Metabolic Activation: NONE) “inactive; negative”; (Test System: AMES SALMONELLA TYPHIMURIUM, Strain/Indicator: TA1537, Metabolic Activation: NONE) “inactive; negative”; (Test System: E. COLI, Strain/Indicator: AB2462 UVRA, Metabolic Activation: NONE, Method: SPOT TEST) “inactive; negative”.
As for `O=C1c2ccccc2C(=O)N1SC1CCCCC1`, the mutagenic call is, setting by setting: under setting [1], “inactive; negative”; (Test System: AMES SALMONELLA TYPHIMURIUM, Strain/Indicator: TA97, Metabolic Activation: RAT LIVER S-9, DELOR 103 (4% OR 10%), Method: STANDARD PLATE) “inactive; negative”; under setting [2], “inactive; negative”; (Test System: AMES SALMONELLA TYPHIMURIUM, Strain/Indicator: TA98, Metabolic Activation: RAT LIVER S-9, DELOR 103 (4% OR 10%), Method: STANDARD PLATE) “inactive; negative”; under setting [3], “inactive; negative”; (Test System: AMES SALMONELLA TYPHIMURIUM, Strain/Indicator: TA100, Metabolic Activation: RAT LIVER S-9, DELOR 103 (4% OR 10%), Method: STANDARD PLATE) “inactive; negative”. In addition, the mutagenic call is, setting by setting: (Test System: AMES SALMONELLA TYPHIMURIUM, Strain/Indicator: TA102, Metabolic Activation: NONE, Method: STANDARD PLATE) “inactive; negative”; (Test System: AMES SALMONELLA TYPHIMURIUM, Strain/Indicator: TA102, Metabolic Activation: RAT LIVER S-9, DELOR 103 (4% OR 10%), Method: STANDARD PLATE) “inactive; negative”.
With `CN(C)CCNC(=O)c1cccc2cc(-c3ccccc3)oc12`, the mutagenic call (Test System: AMES SALMONELLA TYPHIMURIUM, Strain/Indicator: TA1537, Metabolic Activation: NONE, Method: STANDARD PLATE) was “active; positive”.
